Measured values published in ChEMBL document CHEMBL4507291 (2021).

What was measured:
[1] = target: Glutamate receptor ionotropic, kainate (Rattus norvegicus) (UniProt P22756+Q01812+P42260+P42264+Q63273); test: Inhibition of Glutamate, Kainate at 10 µM in the Eurofins-Panlabs radioligand binding assay (Eurofins_assay_232700); conditions: Compound concentration 10.0 uM
[2] = target: MAO-A (amine oxidase [flavin-containing] A) (Homo sapiens, UniProt P21397); test: Inhibition of Monoamine Oxidase MAO-A at compound concentration of 10.0 uM in the Eurofins-Panlabs enzyme assay (Eurofins_assay_140010); set-up: substrate with concentration 50 uM Kynuramine, incubation time 60 min, incubation temperature 37 C; conditions: recombinant human MAO-A expressed in insect Hi5 cells, probe kynuramine (50 uM), compound concentration 10 uM
[3] = target: Cholecystokinin receptor type A (Homo sapiens) (UniProt P32238); test: Inhibition of Cholecystokinin CCK1 (CCKA) at 10 µM in the Eurofins-Panlabs radioligand binding assay (Eurofins_assay_218020); conditions: Compound concentration 10.0 uM
[4] = target: T1, Activin receptor type-1B (Homo sapiens) (UniProt P36896); test: ACVR1B (ALK4) Kinase screen; conditions: Compound concentration 1.0 uM
T1 sequence (whole entry): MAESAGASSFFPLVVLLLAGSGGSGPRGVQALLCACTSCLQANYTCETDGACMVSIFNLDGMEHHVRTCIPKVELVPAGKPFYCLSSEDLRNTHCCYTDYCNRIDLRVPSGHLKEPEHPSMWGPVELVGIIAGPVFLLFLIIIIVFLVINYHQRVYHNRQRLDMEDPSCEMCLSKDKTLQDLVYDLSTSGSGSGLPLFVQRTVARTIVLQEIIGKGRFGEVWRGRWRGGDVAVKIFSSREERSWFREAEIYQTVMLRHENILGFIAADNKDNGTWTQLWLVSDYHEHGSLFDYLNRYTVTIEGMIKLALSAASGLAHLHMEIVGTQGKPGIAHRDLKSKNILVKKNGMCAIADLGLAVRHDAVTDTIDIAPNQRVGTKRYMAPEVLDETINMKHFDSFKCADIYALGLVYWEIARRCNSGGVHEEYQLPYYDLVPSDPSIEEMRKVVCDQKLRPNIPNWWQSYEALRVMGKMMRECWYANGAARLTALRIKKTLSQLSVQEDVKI

[5] = target: T2, Beta-adrenergic receptor kinase 1 (Homo sapiens) (UniProt P25098); test: ADRBK1 (GRK2) Kinase screen; conditions: Compound concentration 1.0 uM
T2 sequence (whole entry): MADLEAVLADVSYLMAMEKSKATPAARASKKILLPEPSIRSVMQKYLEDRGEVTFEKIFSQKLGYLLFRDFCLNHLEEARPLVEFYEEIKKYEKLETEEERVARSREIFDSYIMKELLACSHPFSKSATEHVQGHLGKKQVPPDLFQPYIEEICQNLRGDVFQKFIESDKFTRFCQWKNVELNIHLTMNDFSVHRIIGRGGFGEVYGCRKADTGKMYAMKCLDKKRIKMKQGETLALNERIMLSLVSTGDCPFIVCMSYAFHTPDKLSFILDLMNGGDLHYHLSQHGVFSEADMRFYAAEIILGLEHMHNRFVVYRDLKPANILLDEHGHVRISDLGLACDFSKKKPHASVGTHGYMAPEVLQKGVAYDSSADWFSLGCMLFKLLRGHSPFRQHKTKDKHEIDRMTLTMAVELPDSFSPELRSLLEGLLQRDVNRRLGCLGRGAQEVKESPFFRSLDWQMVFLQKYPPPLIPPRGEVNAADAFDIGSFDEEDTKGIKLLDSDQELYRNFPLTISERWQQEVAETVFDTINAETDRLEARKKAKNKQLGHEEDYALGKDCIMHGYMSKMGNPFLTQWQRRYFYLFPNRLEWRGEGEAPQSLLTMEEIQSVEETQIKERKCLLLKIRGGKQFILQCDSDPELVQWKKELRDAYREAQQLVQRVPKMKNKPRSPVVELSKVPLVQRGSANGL

[6] = target: Epithelial discoidin domain-containing receptor 1 (Homo sapiens) (UniProt Q08345); test: DDR1 Kinase screen; conditions: Compound concentration 1.0 uM
[7] = tested on: Hepatocyte growth factor receptor (Homo sapiens), P08581 [M1250T]; test: MET M1250T Kinase screen; conditions: Compound concentration 1.0 uM
[8] = target: Serine/threonine-protein kinase 26 (Homo sapiens) (UniProt Q9P289); test: MST4 Kinase screen; conditions: Compound concentration 1.0 uM
[9] = target: Serine/threonine-protein kinase Nek7 (Homo sapiens) (UniProt Q8TDX7); test: NEK7 Kinase screen; conditions: Compound concentration 1.0 uM
[10] = target: Phosphatidylinositol 3-kinase catalytic subunit type 3 (Homo sapiens) (UniProt Q8NEB9); test: PIK3C3 (hVPS34) Kinase screen; conditions: Compound concentration 1.0 uM
[11] = target: Serine/threonine-protein kinase N1 (Homo sapiens) (UniProt Q16512); test: PKN1 (PRK1) Kinase screen; conditions: Compound concentration 1.0 uM
[12] = target: Ribosomal protein S6 kinase alpha-1 (Homo sapiens) (UniProt Q15418); test: RPS6KA1 (RSK1) Kinase screen; conditions: Compound concentration 1.0 uM
[13] = target: Testis-specific serine/threonine-protein kinase 2 (Homo sapiens) (UniProt Q96PF2); test: STK22B (TSSK2) Kinase screen; conditions: Compound concentration 1.0 uM
[14] = target: T3, Tyrosine-protein kinase TXK (Homo sapiens) (UniProt P42681); test: TXK Kinase screen; conditions: Compound concentration 1.0 uM
T3 sequence (whole entry): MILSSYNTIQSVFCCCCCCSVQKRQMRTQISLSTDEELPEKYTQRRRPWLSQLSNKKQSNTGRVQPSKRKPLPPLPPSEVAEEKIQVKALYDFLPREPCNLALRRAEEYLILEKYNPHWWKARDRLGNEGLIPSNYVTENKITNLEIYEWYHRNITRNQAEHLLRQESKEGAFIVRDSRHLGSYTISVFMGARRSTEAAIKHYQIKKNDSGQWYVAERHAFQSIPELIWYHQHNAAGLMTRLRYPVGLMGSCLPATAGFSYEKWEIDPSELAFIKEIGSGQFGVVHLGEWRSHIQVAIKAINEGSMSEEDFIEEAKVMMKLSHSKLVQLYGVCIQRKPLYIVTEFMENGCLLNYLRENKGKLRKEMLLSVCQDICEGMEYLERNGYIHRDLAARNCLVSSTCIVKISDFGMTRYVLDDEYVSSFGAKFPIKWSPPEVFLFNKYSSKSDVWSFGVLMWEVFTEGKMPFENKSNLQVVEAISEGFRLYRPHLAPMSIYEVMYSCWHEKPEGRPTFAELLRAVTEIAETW

[15] = target: Adenosine receptor A2a (Homo sapiens) (UniProt P29274); conditions: Compound concentration 10.0 uM
[16] = target: B2 bradykinin receptor (Homo sapiens) (UniProt P30411); conditions: Compound concentration 10.0 uM
[17] = target: D(2) dopamine receptor (Homo sapiens) (UniProt P14416); conditions: Compound concentration 10.0 uM
Chain of D(2) dopamine receptor (Homo sapiens) (P14416 whole entry): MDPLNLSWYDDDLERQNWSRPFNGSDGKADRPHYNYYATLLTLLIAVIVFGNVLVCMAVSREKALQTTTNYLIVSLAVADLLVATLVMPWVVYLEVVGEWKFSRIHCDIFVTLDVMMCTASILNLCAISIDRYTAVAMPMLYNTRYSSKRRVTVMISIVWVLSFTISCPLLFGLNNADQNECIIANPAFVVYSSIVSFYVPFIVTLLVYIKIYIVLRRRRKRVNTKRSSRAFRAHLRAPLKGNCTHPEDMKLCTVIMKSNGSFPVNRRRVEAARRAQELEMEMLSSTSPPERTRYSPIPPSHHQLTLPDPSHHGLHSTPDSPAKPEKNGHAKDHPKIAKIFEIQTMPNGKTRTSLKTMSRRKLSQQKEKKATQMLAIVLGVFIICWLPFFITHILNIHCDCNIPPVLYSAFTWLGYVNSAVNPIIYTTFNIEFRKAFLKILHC

Chain of MAO-A (amine oxidase [flavin-containing] A) (P21397 whole entry): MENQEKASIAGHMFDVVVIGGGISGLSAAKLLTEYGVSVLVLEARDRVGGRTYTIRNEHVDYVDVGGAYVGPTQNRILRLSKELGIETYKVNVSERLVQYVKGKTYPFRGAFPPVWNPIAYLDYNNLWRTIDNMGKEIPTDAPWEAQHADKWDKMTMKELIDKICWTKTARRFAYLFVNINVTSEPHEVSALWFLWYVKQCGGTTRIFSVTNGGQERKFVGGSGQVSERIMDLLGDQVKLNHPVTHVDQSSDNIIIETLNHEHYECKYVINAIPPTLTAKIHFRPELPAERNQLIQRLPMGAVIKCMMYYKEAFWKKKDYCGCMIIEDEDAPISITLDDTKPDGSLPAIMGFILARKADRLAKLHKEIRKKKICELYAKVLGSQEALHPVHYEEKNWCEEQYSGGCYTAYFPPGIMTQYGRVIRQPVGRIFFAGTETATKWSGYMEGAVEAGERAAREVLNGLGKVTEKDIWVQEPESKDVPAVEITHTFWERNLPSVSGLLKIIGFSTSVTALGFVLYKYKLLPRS
Chain of B2 bradykinin receptor (Homo sapiens) (P30411 whole entry): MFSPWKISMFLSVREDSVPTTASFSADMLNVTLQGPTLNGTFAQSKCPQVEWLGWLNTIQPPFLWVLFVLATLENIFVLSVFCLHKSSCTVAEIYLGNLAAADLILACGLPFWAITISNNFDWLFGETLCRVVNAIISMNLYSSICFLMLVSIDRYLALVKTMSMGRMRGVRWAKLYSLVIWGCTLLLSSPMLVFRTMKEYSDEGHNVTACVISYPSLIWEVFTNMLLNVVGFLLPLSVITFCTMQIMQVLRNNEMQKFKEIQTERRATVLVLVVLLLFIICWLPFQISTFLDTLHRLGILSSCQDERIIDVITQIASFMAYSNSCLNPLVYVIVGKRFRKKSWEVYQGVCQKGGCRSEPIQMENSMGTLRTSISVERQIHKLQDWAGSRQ
Chain of Phosphatidylinositol 3-kinase catalytic subunit type 3 (Homo sapiens) (Q8NEB9 whole entry): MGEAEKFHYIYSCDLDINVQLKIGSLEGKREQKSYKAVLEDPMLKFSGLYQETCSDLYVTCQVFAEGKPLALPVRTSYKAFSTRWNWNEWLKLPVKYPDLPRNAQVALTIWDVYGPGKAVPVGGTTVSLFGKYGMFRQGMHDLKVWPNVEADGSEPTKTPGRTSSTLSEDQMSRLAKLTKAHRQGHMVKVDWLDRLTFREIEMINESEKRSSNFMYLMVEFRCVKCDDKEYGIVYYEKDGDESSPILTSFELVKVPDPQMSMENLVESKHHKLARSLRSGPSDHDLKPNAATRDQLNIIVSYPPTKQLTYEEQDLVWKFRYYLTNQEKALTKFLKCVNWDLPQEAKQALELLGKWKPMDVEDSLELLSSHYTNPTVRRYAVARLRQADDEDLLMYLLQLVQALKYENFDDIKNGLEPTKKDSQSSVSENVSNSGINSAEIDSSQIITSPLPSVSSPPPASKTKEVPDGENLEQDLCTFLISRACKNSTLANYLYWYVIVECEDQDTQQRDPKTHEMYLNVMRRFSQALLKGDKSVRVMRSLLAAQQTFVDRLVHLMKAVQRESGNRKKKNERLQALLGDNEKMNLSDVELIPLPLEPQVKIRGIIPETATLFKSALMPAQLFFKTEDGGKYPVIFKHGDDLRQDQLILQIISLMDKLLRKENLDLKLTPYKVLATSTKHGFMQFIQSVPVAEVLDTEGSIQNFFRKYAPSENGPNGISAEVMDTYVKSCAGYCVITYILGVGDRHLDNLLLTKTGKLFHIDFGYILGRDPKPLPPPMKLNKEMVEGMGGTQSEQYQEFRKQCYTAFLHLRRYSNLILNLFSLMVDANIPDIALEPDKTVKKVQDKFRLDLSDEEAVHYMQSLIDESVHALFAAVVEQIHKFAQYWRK
Chain of Serine/threonine-protein kinase N1 (Homo sapiens) (Q16512 2-942 limits assumed): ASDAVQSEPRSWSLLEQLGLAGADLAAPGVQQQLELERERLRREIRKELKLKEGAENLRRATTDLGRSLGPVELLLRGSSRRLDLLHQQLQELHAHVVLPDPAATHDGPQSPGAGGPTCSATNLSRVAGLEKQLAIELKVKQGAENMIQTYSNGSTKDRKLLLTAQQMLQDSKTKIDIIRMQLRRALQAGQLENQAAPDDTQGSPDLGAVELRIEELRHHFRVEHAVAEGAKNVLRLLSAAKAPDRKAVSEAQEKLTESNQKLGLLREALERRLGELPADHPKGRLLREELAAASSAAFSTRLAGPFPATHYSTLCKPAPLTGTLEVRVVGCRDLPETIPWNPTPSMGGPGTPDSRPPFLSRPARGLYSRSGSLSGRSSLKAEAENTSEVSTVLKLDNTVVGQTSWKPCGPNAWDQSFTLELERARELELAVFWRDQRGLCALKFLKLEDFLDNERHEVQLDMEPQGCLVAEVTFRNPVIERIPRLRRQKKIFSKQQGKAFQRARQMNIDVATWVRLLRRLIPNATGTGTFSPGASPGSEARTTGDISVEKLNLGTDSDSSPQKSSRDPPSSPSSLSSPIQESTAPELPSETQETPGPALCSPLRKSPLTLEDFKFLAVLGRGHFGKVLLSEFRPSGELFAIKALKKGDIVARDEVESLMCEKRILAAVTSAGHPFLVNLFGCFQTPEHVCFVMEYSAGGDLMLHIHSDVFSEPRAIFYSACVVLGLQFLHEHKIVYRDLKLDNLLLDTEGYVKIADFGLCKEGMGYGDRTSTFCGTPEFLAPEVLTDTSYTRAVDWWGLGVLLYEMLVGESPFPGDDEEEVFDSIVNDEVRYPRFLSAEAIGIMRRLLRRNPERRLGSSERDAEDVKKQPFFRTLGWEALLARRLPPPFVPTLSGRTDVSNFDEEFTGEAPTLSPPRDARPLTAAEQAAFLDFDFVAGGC
Chain of Cholecystokinin receptor type A (Homo sapiens) (P32238 whole entry): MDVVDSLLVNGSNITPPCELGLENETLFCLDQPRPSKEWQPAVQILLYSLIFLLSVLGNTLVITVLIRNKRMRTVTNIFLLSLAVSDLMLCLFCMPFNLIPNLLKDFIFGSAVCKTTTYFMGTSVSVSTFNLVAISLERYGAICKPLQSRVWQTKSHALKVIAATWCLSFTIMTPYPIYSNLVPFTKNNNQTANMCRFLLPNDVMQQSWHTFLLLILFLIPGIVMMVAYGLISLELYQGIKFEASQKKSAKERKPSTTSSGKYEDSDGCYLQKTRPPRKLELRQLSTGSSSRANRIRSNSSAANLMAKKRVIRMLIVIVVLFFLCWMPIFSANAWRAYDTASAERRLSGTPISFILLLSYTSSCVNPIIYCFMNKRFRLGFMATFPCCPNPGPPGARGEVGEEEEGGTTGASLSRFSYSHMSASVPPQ
Chain of Epithelial discoidin domain-containing receptor 1 (Homo sapiens) (Q08345 whole entry, the tested form may be a part): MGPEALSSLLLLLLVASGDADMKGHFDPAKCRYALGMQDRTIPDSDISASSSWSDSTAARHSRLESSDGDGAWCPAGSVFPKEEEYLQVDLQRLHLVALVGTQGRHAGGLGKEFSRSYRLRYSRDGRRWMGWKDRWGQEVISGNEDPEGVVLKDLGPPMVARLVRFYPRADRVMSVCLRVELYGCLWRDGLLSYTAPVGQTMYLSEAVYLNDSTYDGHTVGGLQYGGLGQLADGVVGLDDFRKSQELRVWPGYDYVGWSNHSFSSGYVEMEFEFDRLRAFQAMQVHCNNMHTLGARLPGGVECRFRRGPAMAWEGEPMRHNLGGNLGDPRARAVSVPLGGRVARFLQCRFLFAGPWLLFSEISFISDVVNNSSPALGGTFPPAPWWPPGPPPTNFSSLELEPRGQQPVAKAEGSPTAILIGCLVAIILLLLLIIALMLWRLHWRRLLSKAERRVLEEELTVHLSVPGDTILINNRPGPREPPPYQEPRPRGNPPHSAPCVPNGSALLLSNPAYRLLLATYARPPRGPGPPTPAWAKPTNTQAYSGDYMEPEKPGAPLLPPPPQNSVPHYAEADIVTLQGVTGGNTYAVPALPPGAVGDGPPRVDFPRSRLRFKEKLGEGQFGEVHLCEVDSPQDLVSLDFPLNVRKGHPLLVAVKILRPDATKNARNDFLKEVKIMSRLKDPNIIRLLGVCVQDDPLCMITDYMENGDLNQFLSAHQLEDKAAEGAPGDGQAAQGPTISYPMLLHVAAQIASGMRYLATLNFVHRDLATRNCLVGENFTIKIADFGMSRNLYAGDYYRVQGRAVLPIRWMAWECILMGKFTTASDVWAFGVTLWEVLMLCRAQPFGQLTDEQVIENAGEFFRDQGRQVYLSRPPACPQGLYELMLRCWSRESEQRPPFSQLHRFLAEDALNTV
Chain of Adenosine receptor A2a (Homo sapiens) (P29274 whole entry): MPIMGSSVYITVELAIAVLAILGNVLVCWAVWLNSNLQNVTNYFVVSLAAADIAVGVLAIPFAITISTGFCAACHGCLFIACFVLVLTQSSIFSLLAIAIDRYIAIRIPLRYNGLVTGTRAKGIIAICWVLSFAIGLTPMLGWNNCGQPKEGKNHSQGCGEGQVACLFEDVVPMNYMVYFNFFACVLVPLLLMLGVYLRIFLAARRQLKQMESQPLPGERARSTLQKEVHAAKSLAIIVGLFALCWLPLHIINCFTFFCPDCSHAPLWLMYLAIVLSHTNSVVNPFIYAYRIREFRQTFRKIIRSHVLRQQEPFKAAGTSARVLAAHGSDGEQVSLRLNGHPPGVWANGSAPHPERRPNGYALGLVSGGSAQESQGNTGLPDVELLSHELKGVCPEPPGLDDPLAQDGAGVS

Structure (SMILES)	inhibition [1] [%]	inhibition at 60 min, 10 µM [2]	inhibition [3] [%]	inhibition [4] [%]	inhibition [5] [%]	inhibition [6] [%]	inhibition [7] [%]	inhibition [8] [%]	inhibition [9] [%]	inhibition [10] [%]	inhibition [11] [%]	inhibition [12] [%]	inhibition [13] [%]	inhibition [14] [%]	inhibition [15] [%]	inhibition [16] [%]	inhibition [17] [%]
C[C@@H]1CN(c2cc(-c3n[nH]c4ccc(OC5(C)CC5)cc34)ncn2)C[C@H](C)O1 [MLi-2]	12	2% (not active)	-4	-0.724	3.84	0.893	2.2	6.89	3.68	19.4	1.46	8.66	10.2	3.11	1	7	–
C[C@@H]1CN(c2cc(-c3nn(C)c4ccc(OC5(C)CC5)cc34)ncn2)C[C@H](C)O1 [MLi-2-NC]	–	–	–	–	–	–	–	–	–	–	–	–	–	–	–	–	-0.18
